# Laboratory results from patent US20180200257A1, “METHODS FOR THE TREATMENT OF INFLAMMATORY DISORDERS” (Galapagos NV, priority 2015, published 2018).
# Test system: subjects with moderately to severely active RA who have an inadequate response to methotrexate (MTX)
# Assay: Study 2 (monotherapy) - ACR responses (ACR20/50/70)
# Assay type: in vivo, human
# Text: The terms “ACR20”, “ACR50” and “ACR70” as used herein are scores which indicate how much a patient's rheumatoid arthritis has improved according to criteria set out by the American College of Rheumatology (ACR). The ACR score represents a percentage. An ACR20 score means that a person's RA has improved by 20%, an ACR50 score means it has improved by 50%, and an ACR70 score means it has improved by 70%. Specifically, to qualify for an ACR20 score, a person with RA must have at least 20% fewer tender joints and at least 20% fewer swollen joints. In addition the patient must show a 20% improvement in at least three of the following five areas: the person's overall (global) assessment of his or her own RA, the physician's global assessment of the person's RA, the person's assessment of his or her own pain, the person's assessment of his or her own physical functioning, and the results of an erythrocyte sedimentation rate or C-reactive protein (CRP) blood test (both of which test for inflammation). ACR50 and ACR70 scores use the same criteria but require 50% and 70% improvement, respectively, (Felson et al., 1993). In the data presented herein the CRP blood test is used.
# Randomized, double-blind, placebo-controlled, multicenter, phase IIb dose finding study of Compound 1 (dosed as a [Compound 1:HCl:3H2O]) administered for 24 weeks as monotherapy to subjects with moderately to severely active rheumatoid arthritis who have an inadequate response to methotrexate alone
# Double-blind, placebo-controlled, monotherapy study in subjects with moderately to severely active RA who have an inadequate response to methotrexate (MTX) (oral or parenteral).
# 280 subjects randomized to one of 3 doses of Compound 1 (dosed as a [Compound 1:HCl:3H2O]) or to placebo, given once daily (q.d.).
# Twelve weeks of treatment with Compound 1 (dosed as a [Compound 1:HCl:3H2O]) at 50 mg, 100 mg, or 200 mg q.d.; or placebo. At Week 12, all subjects on placebo and the subjects on the 50 mg dose who have not achieved 20% improvement in swollen joint count (SJC66) and tender joint count (TJC68) will be assigned to 100 mg q.d. in a blinded fashion and will continue treatment until Week 24. Subjects in the other groups will maintain their randomized treatment until Week 24.
# The American College of Rheumatology (ACR) composite score, which evaluates clinical improvement relative to an initial assessment, is a commonly accepted efficacy end point for clinical trials in patients with rheumatoid arthritis. The ACR score correspond to a percentage improvement in pre-set parameters, and therefore measures the evolution of the disease in a patient. For example, ACR20 denotes at least 20% improvement in tender and swollen joint counts and in three of the following end points: global assessment by the patient, global assessment by the doctor, C reactive protein (CRP), patient's pain Visual Analogue Scale and Health Assessment Questionnaire Score. The number of swollen joints, ESR and CRP correlate with radiographic progression of joint damage, whereas tender joint counts, as well as global assessments by doctors and patients, and patients' reports of pain, are sensitive to change in clinical outcomes. Physical function, as assessed by the Health Assessment Questionnaire Score, is a potent predictor of the risk of disability in rheumatoid arthritis (Felson and American College of Rheumatology Committee to Reevaluate Improvement Criteria, 2007; Felson et al., 1993).
# In particular, the list of parameters used to assess ACR score can be found in the Table XCVI below and the results of the ACR responses at week 12 via either NRI or LOCF are shown in the tables below. The Hommel-corrected p-value for the pairwise comparisons of each group with placebo is shown. […]
# [1] = 50 mg q.d., week 1, 12 weeks results
# [2] = 50 mg q.d., week 1, 24 weeks results
# [3] = 50 mg q.d., week 2, 12 weeks results
# [4] = 50 mg q.d., week 2, 24 weeks results
# [5] = 50 mg q.d., week 4, 12 weeks results
# [6] = 50 mg q.d., week 4, 24 weeks results
# [7] = 50 mg q.d., week 12, 12 weeks results
# [8] = 50 mg q.d., week 12, 24 weeks results
# [9] = 50 mg q.d., week 16, 24 weeks results
# [10] = 50 mg q.d., week 20, 24 weeks results
# [11] = 50 mg q.d., week 24, 24 weeks results
# [12] = 50 mg q.d., week 8, 12 weeks results
# [13] = 50 mg q.d., week 8, 24 weeks results
# [14] = 100 mg q.d., week 1, 12 weeks results
# [15] = 100 mg q.d., week 1, 24 weeks results
# [16] = 100 mg q.d., week 2, 12 weeks results
# [17] = 100 mg q.d., week 2, 24 weeks results
structure (smiles),measurement,setting,value
"O=C(Nc1nc2cccc(-c3ccc(CN4CCS(=O)(=O)CC4)cc3)n2n1)C1CC1 [Compound 1, cyclopropanecarboxylic acid {5-[4-(1,1-dioxo-thiomorpholin-4-ylmethyl)-phenyl]-[1,2,4]triazolo[1,5-a]pyridin-2-yl}-amide]",ACR20 (LOCF),[1],20.8
same,ACR20 (NRI),[1],22.2%
same,ACR50 (LOCF),[1],1.4%
same,ACR50 (NRI),[1],1.4%
same,ACR70 (LOCF),[1],0.0%
same,ACR70 (NRI),[1],0.0%
same,ACR20 (LOCF),[2],22.2
same,ACR20 (NRI),[2],22.2%
same,ACR50 (LOCF),[2],1.4%
same,ACR50 (NRI),[2],1.4%
same,ACR70 (LOCF),[2],0.0%
same,ACR70 (NRI),[2],0.0%
same,ACR20 (LOCF),[3],33.3%
same,ACR20 (NRI),[3],34.7%
same,ACR50 (LOCF),[3],5.6%
same,ACR50 (NRI),[3],5.6%
same,ACR70 (LOCF),[3],1.4%
same,ACR70 (NRI),[3],1.4%
same,ACR20 (LOCF),[4],33.3%
same,ACR20 (NRI),[4],33.3%
same,ACR50 (LOCF),[4],5.6%
same,ACR50 (NRI),[4],5.6%
same,ACR70 (LOCF),[4],1.4%
same,ACR70 (NRI),[4],1.4%
same,ACR20 (LOCF),[5],54.2%
same,ACR20 (NRI),[5],54.2%
same,ACR50 (LOCF),[5],13.9%
same,ACR50 (NRI),[5],15.3%
same,ACR70 (LOCF),[5],8.3%
same,ACR70 (NRI),[5],8.3%
same,ACR20 (LOCF),[6],52.8%
same,ACR20 (NRI),[6],52.8%
same,ACR50 (LOCF),[6],15.3%
same,ACR50 (NRI),[6],15.3%
same,ACR70 (LOCF),[6],8.3%
same,ACR70 (NRI),[6],8.3%
same,ACR50 (NRI),[7],36.1%%
same,ACR70 (NRI),[7],8.3%%
same,ACR50 (NRI),[8],34.7%
same,ACR70 (NRI),[8],8.3%
same,ACR50 (NRI),[9],33.3%
same,ACR70 (NRI),[9],15.3%
same,ACR50 (NRI),[10],27.8%
same,ACR70 (NRI),[10],12.5%
same,ACR50 (NRI),[11],31.9%
same,ACR70 (NRI),[11],19.4%
same,ACR20 (LOCF),[12],62.5%
same,ACR20 (NRI),[12],61.1%
same,ACR50 (LOCF),[12],16.7%
same,ACR50 (NRI),[12],16.7%
same,ACR70 (LOCF),[12],6.9%
same,ACR70 (NRI),[12],6.9%
same,ACR20 (LOCF),[13],61.1%
same,ACR20 (NRI),[13],61.1%
same,ACR50 (LOCF),[13],16.7%
same,ACR50 (NRI),[13],16.7%
same,ACR70 (LOCF),[13],6.9%
same,ACR70 (NRI),[13],6.9%
same,ACR20 (LOCF),[14],24.3%
same,ACR20 (NRI),[14],24.3%
same,ACR50 (LOCF),[14],10.0%
same,ACR50 (NRI),[14],10.0%
same,ACR70 (LOCF),[14],1.4%
same,ACR70 (NRI),[14],1.4%
same,ACR20 (LOCF),[15],24.3%
same,ACR20 (NRI),[15],24.3%
same,ACR50 (LOCF),[15],10.0%
same,ACR50 (NRI),[15],10.0%
same,ACR70 (LOCF),[15],1.4%
same,ACR70 (NRI),[15],1.4%
same,ACR20 (LOCF),[16],34.3%
same,ACR20 (NRI),[16],32.9%
same,ACR50 (LOCF),[16],8.6%
same,ACR50 (NRI),[16],7.1%
same,ACR70 (LOCF),[16],1.4%
same,ACR70 (NRI),[16],1.4%
same,ACR20 (LOCF),[17],35.7%
same,ACR20 (NRI),[17],32.9%
same,ACR50 (LOCF),[17],8.6%
same,ACR50 (NRI),[17],7.1%
same,ACR70 (LOCF),[17],1.4%
same,ACR70 (NRI),[17],1.4%
same,ACR20 (LOCF),"100 mg q.d., week 4, 12 weeks results",44.3%
